US20230172923A1, “METHODS OF TREATING CYTOKINE-RELATED ADVERSE EVENTS” (BRISTOL-MYERS SQUIBB COMPANY, priority 2020, published 2023)

What was measured:
Format in all cases: cell-based, human
TNF-alpha = test: CC-93269-induced TNF-alpha secretion, co-culture of PBMCs and K562-BCMA cells (MSD); conditions: Compound 1 pre-treatment; 24 hours
Procedure: Co-cultures of PBMCs, target K562-BCMA cells and CC-93269 were prepared as for FIG. 9. At 6-, 24- and 48-hours post-incubation, the cell culture media was collected and levels of TNF-alpha (FIG. 12A) and IL-2 (FIG. 12B) in the supernatant were assessed using an MSD assay. ULOQ = Upper limit of quantification.
Fresh PBMCs were isolated from the blood (buffy coat) of healthy human volunteers by Ficoll based cell separation. The percentage of CD3+ T-cells (total) in the PBMCs was quantified by flow cytometry. The isolated PBMCs were seeded in 12-well plates at a concentration of 1.5×10^6 cells/ml and treated with 1 nM Compound 1 (CC-92480), 1000 nM lenalidomide, 100 nM pomalidomide, 10 nM iberdomide, or control DMSO overnight (~17 hours).
After overnight incubation, target K562-BCMA cells (overexpress surface BCMA at a very high level) or control K562-MCB cells (no BCMA expression) were added to the wells at a ratio of 5:1, T-cells to target cells. K562-BCMA and K562-MCB are an isogenic pair that are derived from a chronic myelogenous leukemia (CML,) cell line. CC-93269 was added to the co-culture at various concentrations and incubated. CC-93269 is an anti-BCMA anti-CD3 bispecific T cell-engaging antibody and is also referred to herein as 42-TCBcv.

IL-6 [1] = test: LPS-induced IL-6 secretion from isolated macrophages (M0) (MSD); conditions: overnight (~17 hours) 1000 nM lenalidomide, 100 nM pomalidomide, 10 nM iberdomide or 1 nM Compound 1; then LPS
Procedure: Monocytes from healthy volunteers were seeded at a concentration of 3×10^5 cells/ml for 4 days with RPMI 1640 media containing M-CSF (50 ng/mL) (50% media replaced after 2 days) to obtain naive macrophages (M0). At the end of day 4, macrophages were treated with the indicated concentration of IMiD/CELMoD agents overnight (~17 hours). The next morning, the macrophages were stimulated with the indicated concentration of LPS for 8 hours, before IL-6 levels in the supernatant were assessed using an MSD assay.
Peripheral blood mononuclear cells (PBMCs) were isolated from the blood of two healthy human donors by Ficoll cell separation, and then monocytes were isolated from these PBMCs by positive selection using MACS […] magnetic microbeads. The isolated monocytes were seeded at a concentration of 3×10^5 cells/ml and incubated for 4 days with RPMI 1640 media containing M-CSF (50 ng/mL) (50% media replaced after 2 days) to obtain naive macrophages (M0). At the end of day 4, the macrophages were incubated overnight (~17 hours) with 1000 nM lenalidomide, 100 nM pomalidomide, 10 nM iberdomide or 1 nM Compound 1, or control DMSO (0.001%), before stimulation with various concentrations of LPS for IL-6 secretion.
After 6 hours, the cell culture was spun down at 300 g for 5 minutes to remove cells, and the supernatant was subjected to MSD analysis to quantify secreted IL-6.

IL1-beta = test: LPS-induced IL1-beta secretion from PBMCs, overnight pre-treatment (MSD); conditions: overnight 1000 nM lenalidomide, 100 nM pomalidomide, 10 nM iberdomide or 1 nM Compound 1; LPS 24 hours
Procedure: Fresh PBMCs isolated from healthy volunteers were seeded at a concentration of 1×10^6 cells/ml and treated with the indicated concentration of IMiD drugs/CELMoD agents or DMSO overnight before stimulation with the indicated concentration of LPS. After 24 hours, the cell culture media was collected and IL-6, TNF-alpha and IL1-beta levels in the supernatant were assessed using an MSD assay. ULOQ = Upper limit of quantification.
Fresh peripheral blood mononuclear cells (PBMCs) were isolated from the blood (buffy coat) of healthy human volunteers by Ficoll based cell separation. The isolated PBMCs were seeded at a concentration of 1×10^6 cells/ml and treated with 1000 nM lenalidomide, 100 nM pomalidomide, 10 nM iberdomide, 1 nM Compound 1 (CC-92480) or control DMSO, overnight (~17 hours). The next morning, the PBMCs were stimulated with various concentrations of LPS (Lipopolysaccharides from Escherichia coli O111:B4).
After 24 hours, the cell culture media was collected from the control and stimulated cells, spun down at 300 g for 5 minutes to remove cells and the supernatant was subjected to cytokine analysis to quantify secreted levels of IL-6, TNF-alpha (TNF-α) and IL1-beta (IL-1β) using an MSD assay (see e.g. FIGS. 8A-C).

IL-6 [2] = test: CC-93269-induced IL-6 secretion, co-culture of PBMCs and H929 multiple myeloma cells (MSD); conditions: 1 nM Compound 1 pre-treatment overnight, washed out; two donors
Procedure: Fresh PBMCs were isolated from healthy volunteers, the percentage of CD3+ T-cells (total) was quantified by flow cytometry, and the PBMCs were treated with 1 nM Compound 1 (CC-92480) or control DMSO overnight. The next morning, target H929 cells were added to the wells at a ratio of 5:1, T-cells to target cells, followed by addition of CC-93269 at indicated concentrations. At 6-, 24- and 48-hours post-incubation, the cell culture was collected and levels of IL-6 in the supernatant were assessed using an MSD assay.
Fresh PBMCs were isolated from the blood (buffy coat) of human volunteers by Ficoll based cell separation. The percentage of CD3+ T-cells (total) in the PBMCs was quantified by flow cytometry. The isolated PBMCs were seeded in 12 well plates at a concentration of 1.5×10^6 cells/ml and treated with 1 nM Compound 1 (CC-92480) or control DMSO overnight (~17 hours). After overnight incubation, the cells were washed to remove CC-92480, before target H929 cells were added to the wells at a ratio of 5:1, T-cells to target cells. […]
The co-culture was then incubated with CC-93269 at various concentrations. At 6, 24 and 48 hours post-incubation, the cell culture media was collected from all samples, spun down at 300 g for 5 minutes to remove cells and the supernatant was subjected to cytokine analysis to quantify secreted levels of IL-6 using an MSD assay. […]

MDC = test: LPS-stimulated PBMC cytokine production, multiplex cytokine analysis: MDC; conditions: Homo sapiens, PBMC, PBMC 2×10^6 cells/ml, compound 1 hour, then 1 ng/ml LPS 18 hours
Procedure: Peripheral blood mononuclear cells (PBMCs) were isolated from the blood of healthy human donors by Ficoll cell separation. […] Supernatant samples were subjected to multiplex cytokine analysis (Luminex IS100 instrument) to quantify secreted levels of IL-6, IL-8, IL1-beta (IL-1β), GM-CSF, MDC, MIP-1alpha (MIP-1α), MIP-1beta (MIP-1β) and TNF-alpha (TNF-α) (see e.g. FIGS. 7A-C). IC50 (half maximal inhibitory concentration) values were calculated to measure the potency of each IMiD compound in inhibiting LPS-stimulated secretion of each cytokine (see Table 25).

Compound | CC-93269-induced TNF-alpha secretion from PBMCs with K562 target cells (TNF-alpha) | LPS-induced IL-6 secretion from macrophages (IL-6 [1]) | LPS-induced secretion of IL-1β from PBMCs (IL1-beta) | secretion of IL-6 associated with CC-93269 activity, PBMCs + multiple myeloma cells (H929) (IL-6 [2]) | IC50 (MDC) [µM]
N#Cc1ccc(N2CCN(Cc3ccc(COc4cccc5c4CN(C4CCC(=O)NC4=O)C5=O)cc3)CC2)c(F)c1 (stereo not drawn) [Compound 1, 4-(4-(4-(((2-(2,6-dioxopiperidin-3-yl)-1-oxoisoindolin-4-yl)oxy)methyl)benzyl)piperazin-l-yl)-3-fluorobenzonitrile] | potentiates | diminished | reduces | diminished/attenuated | 
O=C1CC[C@H](N2Cc3c(OCc4ccc(CN5CCOCC5)cc4)cccc3C2=O)C(=O)N1 [Iberdomide, (S)-3-(4-((4-(morpholinomethyl)benzyl)oxy)-1-oxoisoindolin-2-yl)piperidine-2,6-dione] |  | diminished | reduces |  | 0.0021
Nc1cccc2c1CN(C1CCC(=O)NC1=O)C2=O (stereo not shown) [Lenalidomide, 3-(4-amino-1-oxo-2,3-dihydro-1H-isoindol-2-yl) piperidine-2,6-dione] |  | diminished | reduces |  | 0.19
Nc1cccc2c1C(=O)N(C1CCC(=O)NC1=O)C2=O (stereo not shown) [Pomalidomide, 4-amino-2-(2,6-dioxopiperidine-3-yl)isoindoline-1,3-dione] |  | diminished | reduces |  | 0.031
